Test results published in patent US8138194B2, “Fused bicyclic pyrimidine compounds as aurora kinase inhibitors” (National Health Research Institutes, priority 2008, dated 2012).
“And” between values parts separate entries of the source, which are not always exact repeats. Equal values may be shown once.

Molecular target: T1, GST-tAurora A (123-401aa) fusion protein (Homo sapiens, UniProt O14965)
T1 construct: GST-tAurora A (123-401aa) fusion protein; made in house; host or cells: Sf9 insect cells (baculovirus, pBacPAK8)
T1 sequence (O14965 123-401): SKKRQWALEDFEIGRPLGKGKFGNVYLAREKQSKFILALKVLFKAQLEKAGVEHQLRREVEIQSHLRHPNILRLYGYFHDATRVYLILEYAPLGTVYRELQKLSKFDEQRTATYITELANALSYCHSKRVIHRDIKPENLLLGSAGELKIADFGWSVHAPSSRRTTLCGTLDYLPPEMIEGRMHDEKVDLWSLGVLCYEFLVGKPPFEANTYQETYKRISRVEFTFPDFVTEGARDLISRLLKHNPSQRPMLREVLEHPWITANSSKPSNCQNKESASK
Assay: Aurora Kinase A luminescent kinase assay
Format: biochemical
Settings: IC50 (concentration of a test compound at which activity of 50% of Aurora A is inhibited)
Method: The Aurora A catalytic domain with an N-terminal GST tag was constructed in pBacPAK8 plasmid and expressed in sf9 cells. […] To concentrate GST-tAurora A, buffer was replaced with Tris buffer (100 mM Tris (pH 7.5), 300 mM NaCl, 1 mM EDTA, 4 mM DTT) using Amicon ultra-15 (MWCO:30K, Millipore) to 2.4 mg/ml. After the addition of equal volume of glycerol and 0.04% Triton X-100, the proteins were stored aliquoted at −80° C.
Briefly, a test compound, enzyme, substrate-tetra(LRRWSLG), DTT and ATP were dissolved in Aur buffer (50 mM Tris-HCl pH 7.4, 10 mM NaCl, 10 mM MgCl2, and 100 μg/ml BSA) individually before the assay. […] 5 μM ATP (5 μl), 1 mM DTT (5 μl) and 0.1 mM tetra(LRRWSLG) peptide substrate (5 μl) were added into the reactions of test compounds and GST-tAurora A. The reactions were incubated at 37° C. for 90 min. 50 μl of Kinase-Glo Plus Reagent (V3771, Promega) was added into the reactions, followed by the incubation at 25° C. for 20 min.

Work on `O=C(Nc1ccc(CCNc2ncnc3oc(-c4ccccc4)cc23)cc1)Nc1cccnc1` [Compound 231] yielded an IC50 of under 1000 nM.
`CNC(=O)Nc1ccc(CCNc2ncnc3oc(-c4ccccc4)c(-c4ccccc4)c23)cc1` [Compound 8] was tested, and the IC50 was 45 to 400 nM and < 1000 nM.
`O=C(Nc1ccc(CCNc2ncnc3oc(-c4ccccc4)c(-c4ccccc4)c23)cc1)Nc1ccc2c(c1)OCO2` [Compound 73] was tested, and the IC50 was 45 to 400 nM and < 1000 nM.
With `CN(C)CCNC(=O)Nc1ccc(CCNc2ncnc3oc(-c4ccccc4)c(-c4ccccc4)c23)cc1` [Compound 198] the IC50 was 45 to 400 nM and < 1000 nM.
In the case of `O=C(Nc1ccc(CCNc2ncnc3oc(-c4ccccc4)c(-c4ccccc4)c23)cc1)NC1CCCC1` [Compound 70], the IC50 is reported as 45 to 400 nM and < 1000 nM.
In the case of `Cc1cc(NC(=O)Nc2ccc(CCNc3ncnc4oc(-c5ccccc5)c(-c5ccccc5)c34)cc2)no1` [Compound 160], the IC50 is reported as under 1000 nM.
`CN1CCN(Cc2cccc(NC(=O)Nc3ccc(CCNc4ncnc5oc(-c6ccccc6)c(-c6ccccc6)c45)cc3)c2)CC1` [Compound 122] gave an IC50 of under 1000 nM.
`CCOC(=O)c1c(-c2ccccc2)oc2ncnc(NCCc3ccc(NC(=O)Nc4ccccc4)cc3)c12` [Compound 107] showed an IC50 of under 1000 nM.
With `COc1ccc(NC(=O)Nc2ccc(CCNc3ncnc4oc(-c5ccccc5)c(-c5ccccc5)c34)cc2)cc1OC` [Compound 95] the IC50 was under 1000 nM.
`O=C(Nc1ccccc1)Nc1ccc(CCNc2ncnc3oc(-c4ccccc4)c(-c4cccc(O)c4)c23)cc1` [Compound 78] was tested, and the IC50 was 45 to 400 nM and < 1000 nM.
In the case of `CCOC(=O)N1CCc2c(sc3ncnc(NCCc4ccc(NC(=O)Nc5ccccc5)cc4)c23)C1` [Compound 208], the IC50 is reported as < 1000 nM and 45 to 400 nM.
`Nc1ccc(CCOc2ncnc3oc(-c4ccccc4)c(-c4ccccc4)c23)cc1` [Compound 26] gave an IC50 of under 1000 nM.
`O=C(Nc1ccc(CCNc2ncnc3oc(-c4ccccc4)c(-c4ccccc4)c23)cc1)Nc1ccccc1CN1CCCCC1` [Compound 124] was tested, and the IC50 was under 1000 nM.
With `O=C(Nc1ccc(CCNc2ncnc3oc(-c4ccccc4)c(-c4ccccc4)c23)cc1)NN1CCCCC1` [Compound 45] the IC50 was < 1000 nM and 45 to 400 nM.
Compound `Oc1ccc(CCNc2ncnc3oc(-c4ccccc4)c(-c4ccccc4)c23)cc1` [Compound 4] has an IC50 of under 1000 nM.
In the case of `O=C(NCCCCl)Nc1ccc(CCNc2ncnc3oc(-c4ccccc4)c(-c4ccccc4)c23)cc1` [Compound 227], the IC50 is reported as under 1000 nM.
In the case of `O=C(Nc1ccc(CCNc2ncnc3oc(-c4ccccc4)c(-c4ccccc4)c23)cc1)Nc1cccc([N+](=O)[O-])c1` [Compound 32], the IC50 is reported as 45 to 400 nM and < 1000 nM.
`O=C(Nc1ccc(CCNc2ncnc3oc(-c4ccccc4)c(-c4ccccc4)c23)cc1)Nc1cccc(C(F)(F)F)c1` [Compound 29] was tested, and the IC50 was 45 to 400 nM and < 1000 nM.
Work on `Cc1cc(NC(=O)Nc2ccc(CCNc3ncnc4oc(-c5ccccc5)c(-c5ccccc5)c34)cc2)n[nH]1` [Compound 238] yielded an IC50 of under 1000 nM.
With `Cc1cnc(NC(=O)Nc2ccc(CCNc3ncnc4oc(-c5ccccc5)c(-c5ccccc5)c34)cc2)s1` [Compound 164] the IC50 was under 1000 nM.
With `Nc1ccc(CCNc2ncnc3oc(-c4ccccc4)c(-c4ccccc4)c23)cc1` [Compound 3, N-(4-aminophenethyl)-5,6-diphenylfuro[2,3-d]pyrimidin-4-amine] the IC50 was under 1000 nM.
With `O=C(Nc1ccccc1)Oc1ccc(CCNc2ncnc3oc(-c4ccccc4)c(-c4ccccc4)c23)cc1` [Compound 18] the IC50 was 45 to 400 nM and < 1000 nM.
With `COc1ccc(-c2c(-c3ccccc3)oc3ncnc(NCCc4ccc(NC(=O)Nc5ccccc5)cc4)c23)cc1` [Compound 56] the IC50 was 45 to 400 nM and < 1000 nM.
With `O=C(Nc1ccc(CCNc2ncnc3oc(-c4ccccc4)c(-c4ccccc4)c23)cc1)Nc1cccc(Cl)c1` [Compound 15] the IC50 was 45 to 400 nM and < 1000 nM.
In the case of `O=C(NCCO)Nc1ccc(CCNc2ncnc3oc(-c4ccccc4)c(-c4ccccc4)c23)cc1` [Compound 199], the IC50 is reported as 45 to 400 nM and < 1000 nM.
For `O=C(Nc1ccc(CCNc2ncnc3oc(-c4ccccc4)c(-c4ccccc4)c23)cc1)Nc1ccc(F)c(F)c1` [Compound 62], the IC50 was 45 to 400 nM and < 1000 nM.
With `O=C(Nc1ccc(CCNc2ncnc3oc(-c4ccccc4)c(-c4ccccc4)c23)cc1)NC1CC1` [Compound 201] the IC50 was < 1000 nM and 45 to 400 nM.
With `O=C(Nc1ccc(CCNc2ncnc3oc(-c4ccccc4)c(-c4ccccc4)c23)cc1)NC1CCCCC1` [Compound 71] the IC50 was 45 to 400 nM and < 1000 nM.
